Tests used:
[1] = UV-Vis titration, 1:1 binding of dihydrogen phosphate (Bu4N+ salt) in aqueous DMSO; conditions: for Binding constant (1:1) to H2PO4^−: 25% aqueous DMSO (v/v)
Procedure: (§1) Their interactions with anion salts were investigated in various aqueous dimethylsulfoxide (DMSO) mixtures.
(§2) Dilute non-aggregating solutions of a receptor S were titrated with a given anion X^− via a solution of its tetrabutylammonium salt and were monitored by UV-VIS spectrometery. UV absorption spectra (250-600 nm) were recorded three times for each solution and average values for each point were used; all of the spectra were background corrected by subtracting the absorption of the solvent. The wavelength with the maximum change in the concentration corrected absorption (Acor=A·C0/C, where C and C0 are the current and the initial receptor concentrations) was determined and then used for further analysis. Absorptions were plotted versus anion concentrations and the binding constants were determined by an iterative non-linear least squares curve fitting routine implemented in Excel using the equations below. Observed and calculated absorptions are given for each titration in the corresponding Tables and Figures.
(§3) K: binding constant for 1:1 complex formation
(§4) [S]:free receptor concentration
(§5) [S]0:total receptor concentration
(§6) [SX]:bound receptor concentration
(§7) [X]0:total anion concentration
(§8) A: absorption of the solution
(§9) A0:absorption of the initial solution (no anion added)
(§10) Amax:absorption of the solution if all the receptor was bound (infinite excess of anion at the initial receptor concentration)
(§11) In cases where there is a large excess of the anion, [X] about equals [X]0, and the plot of ΔAcor/[X] versus ΔAcor gives a straight line where the slope of the linear least squares fit of the data is the binding constant (K) and the intercept is K·ΔAmax:
(§12) with ΔAcor=(A−A0)·C0/C, where C and C0 are the current and the initial receptor concentrations; ΔAmax=Amax−A0.

[2] = UV-Vis titration, 1:1 binding of acetate (Bu4N+ salt) in aqueous DMSO; conditions: for Binding constant (1:1) to OAc^−: 25% aqueous DMSO (v/v)
Procedure: as §1, §2, §3, §4, §5, §6, §7, §8, §9, §10, §11, §12

[3] = UV-Vis titration, 1:1 binding of chloride (Bu4N+ salt) in aqueous DMSO; conditions: 25% aqueous DMSO (v/v)
Procedure: as §1, §2, §3, §4, §5, §6, §7, §8
A0:absorption of the initial solution (no anion added) […]

[4] = Solubility of receptor (qualitative)

Structure (SMILES) | Binding constant (1:1) to H2PO4^− [1] [M⁻¹] | Binding constant (1:1) to OAc^− [2] [M⁻¹] | K1-bis/K1-mono for dihydrogen phosphate ([1]; 25% aqueous DMSO) | Binding constant K of 1:1 adduct with H2PO4^− ([1]; 0.5% DMSO-H2O mixture, 0-1 equivalents of anion) [M⁻¹] | association constant relative to the statistical value (36 M^−1) expected for one-arm binding of H2PO4^− ([1]; 25% aqueous DMSO) | acetate binding strength relative to 1-mono ([2]; 25% aqueous DMSO) | Binding constant (1:1) to Cl^− [3] [M⁻¹] | solubility [4]
O=[N+]([O-])c1ccc(NC(=S)Nc2ccccc2)cc1 [1-mono, 1-(4—Nitrophenyl)-3-phenylthiourea] | 12 | 12 | – | – | – | – | – | –
O=[N+]([O-])c1ccc(NC(=S)Nc2ccccc2-c2cccc(-c3ccccc3NC(=S)Nc3ccc([N+](=O)[O-])cc3)c2)cc1 [1-bis, 1,3-bis[2-(3-(4—Nitrophenyl)thioureido)phenyl]benzene] | 28 | – | about 2 | – | – | – | – | –
O=[N+]([O-])c1ccc(NC(=S)Nc2ccccc2-c2cc(-c3ccccc3NC(=S)Nc3ccc([N+](=O)[O-])cc3)cc(-c3ccccc3NC(=S)Nc3ccc([N+](=O)[O-])cc3)c2)cc1 [1-tris, 1,3,5-tris[2-(3-(4—Nitrophenyl)thioureido)phenyl]benzene] | 4000 | 35 | – | > 5e+06 | more than 100 fold | three times more strongly | 1 | low solubility
FC(F)(F)c1cc(NC(=S)Nc2ccccc2-c2cc(-c3ccccc3NC(=S)Nc3cc(C(F)(F)F)cc(C(F)(F)F)c3)cc(-c3ccccc3NC(=S)Nc3cc(C(F)(F)F)cc(C(F)(F)F)c3)c2)cc(C(F)(F)F)c1 [2-tris, 1,3,5-tris[2-(3-(3,5-Trifluoromethylphenyl)thioureido)phenyl]benzene] | 10000 | – | – | – | – | – | – | more soluble

— patent US20150157783A1, “METHOD TO SELECTIVELY BIND AND EXTRACT PHOSPHATE” (priority 2013, published 2015)
